Measured values: publication PMC6340889, “Structural basis of AimP signaling molecule recognition by AimR in Spbeta group of bacteriophages” (Protein & Cell, 2018)
Ends that are not written are not given here.

Target: T1, full-length AimR (wild-type) (Bacillus phage SPbeta, UniProt O64094)
T1 construct: 6xHis (C); made in house; host or cells: E. coli BL21 (DE3)
Assay: Isothermal titration calorimetry (ITC), AimP vs wild-type AimR
Design: species or system Bacillus subtilis SPbeta phage
Details: wild-type full-length AimR 10–20 μM in cell, AimP 200–500 μM in syringe; 20 mM Tris-HCl (pH 8.0), 150 mM NaCl; 25°C; MicroCal iTC200; read-out: Kd (dissociation constant) for AimP binding
Protocol: DNA sequence encoding full-length AimR from Bacillus subtilis SPbeta phage was cloned into the pET-28a vector with a C-terminal 6×His-tag. The construct was introduced into E.coli BL21 (DE3) cells. The recombinant strains were cultured in LB medium at 37°C until the OD600 reached 0.8. After 16 h of induction with 0.5 mM IPTG at 16°C, the cells were harvested by centrifugation at 5, 000 rpm for 30 min at 4°C. The pelleted cells were then resuspended in the lysis buffer containing 50 mM Tris-HCl (pH 8.0) and 150 mM NaCl, and subsequently lysed by ultrasonication. The lysate was then centrifuged at 17,000 rpm for 30 min at 4°C. Protein purification was carried out following the routine procedure (Jiang et al., 2017). Briefly, the supernatant was loaded onto a Ni-NTA column (Qiagen). The target protein was eluted with 50 mM Tris-HCl (pH 8.0) containing 150 mM NaCl and 250 mM imidazole. The fractions containing purified protein were pooled, concentrated to 0.5 ml and loaded onto a Superdex200 increase column (GE Healthcare) equilibrated with buffer containing 20 mM Tris-HCl (pH 8.0) and 150 mM NaCl. All the AimR mutant proteins were purified following the same protocol.
ITC experiments were performed using a MicroCal iTC200 instrument (Malvern Instruments Ltd.). […] The resulting isotherms were recorded and fitted with Origin software (OriginLab).

T1 sequence (O64094 whole entry): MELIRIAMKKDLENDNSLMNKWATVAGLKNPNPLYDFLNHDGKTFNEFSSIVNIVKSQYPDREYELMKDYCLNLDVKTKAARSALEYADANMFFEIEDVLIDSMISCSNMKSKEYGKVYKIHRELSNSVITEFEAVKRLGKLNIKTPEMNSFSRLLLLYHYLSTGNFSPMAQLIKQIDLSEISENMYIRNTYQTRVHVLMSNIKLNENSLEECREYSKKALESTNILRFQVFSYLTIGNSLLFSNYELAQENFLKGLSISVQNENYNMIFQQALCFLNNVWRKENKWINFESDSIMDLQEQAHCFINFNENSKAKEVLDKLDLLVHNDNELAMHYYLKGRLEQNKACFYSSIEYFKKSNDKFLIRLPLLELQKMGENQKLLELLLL

GMPRGA [AimP]
Kd: 40 nM
